In patent US10221163B2 (priority 2015, dated 2019):
Read-outs that look alike come from different tables or passages of the source.

Tests used:
[1] = system: Pseudomonas aeruginosa efflux+ (MB9798), IMP-1; format: cell-based; parameters: Concentration of metallo-β-lactamase inhibitor which restores susceptibility of efflux + (MB9798) strain to imipenem: unit not given here; details: C, D serine β-lactamase inhibitor closely related to relebactam; for Concentration of metallo-β-lactamase inhibitor which restores susceptibility of efflux + (MB9798) strain to imipenem: imipenem at 2 μg/mL, in the presence of a class A; for P. aeruginosa expressing IMP-1, efflux + (MB9798) MITC95: concentration restoring susceptibility to imipenem at 2 μg/mL in the presence of a class A
Summary of the method: (§1)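 Steps: add fixed imipenem and/or ceftazidime (usually CLSI breakpoint) and fixed AmpC-directed class A/C inhibitor to microbroth MIC wells; titrate MBL inhibitor; record concentration regaining susceptibility for each PAO1-derived strain; divide efflux+ by efflux− value.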

[2] = system: Pseudomonas aeruginosa efflux− (MB9799), IMP-1; format: cell-based; details: C, D serine β-lactamase inhibitor closely related to relebactam; for Concentration of metallo-β-lactamase inhibitor which restores susceptibility of efflux − (MB9799) strain to imipenem: imipenem at 2 μg/mL, in the presence of a class A; for P. aeruginosa expressing IMP-1, efflux − (MB9799) MITC95: concentration restoring susceptibility to imipenem at 2 μg/mL in the presence of a class A
Summary of the method: as §1

[3] = system: Escherichia coli expressing NDM-1 (CLB30005, CLB30016); format: cell-based; details: with imipenem 1 μg/ml; for Escherichia coli MITC95: NDM-1 strain, 95% inhibition of growth; for Escherichia coli expressing NDM-1 (CLB30016) MITC95: 95% inhibition of bacterial growth
Summary of the method: (§2)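 Imipenem 1 μg/ml + inhibitor; MBL-expressing clinical strains in 1.1×CAMHB, inoculum from saline suspension diluted 1:100; 35° C, 22–24 h; absorbance read-out.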

[4] = system: Klebsiella pneumoniae expressing VIM-1 (IHMA599644); format: cell-based; details: for Klebsiella pneumoniae MITC95: VIM-1 strain IHMA599644, with imipenem 1 μg/ml, 95% inhibition of growth; for Klebsiella pneumoniae expressing VIM-1 (IHMA599644) MITC95: with imipenem 1 μg/ml, 95% inhibition of bacterial growth
Summary of the method: as §2

[5] = system: Serratia marcescens expressing IMP-1 (CL5741); format: cell-based; details: for Serratia marcescens MITC95: IMP-1 strain CL5741, with imipenem 1 μg/ml, 95% inhibition of growth; for Serratia marcescens expressing IMP-1 (CL5741) MITC95: with imipenem 1 μg/ml, 95% inhibition of bacterial growth
Summary of the method: as §2

[6] = target: VIM-1 (Pseudomonas aeruginosa (strain ATCC 15692 / DSM 22644 / CIP 104116 / JCM 14847 / LMG 12228 / 1C / PRS 101 / PAO1), UniProt A0A0F7KYQ8); assay: biochemical; details: CCF2-FA substrate, 30 pM enzyme, 2 hours at 25° C.
Summary of the method: (§3)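 Inhibitor was mixed with the metallo-β-lactamase and CCF2-FA. After 2 hours at 25° C, fluorescence of the coumarin–fluorescein cephalosporin substrate was read. IC50 was calculated with a 4-parameter fit.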

[7] = target: IMP-1 (Serratia marcescens, UniProt P52699); assay: biochemical; format: biochemical; details: fluorescence assay, CCF2-FA substrate, 2 pM enzyme, 2 hours at 25° C., read-out: IMP-1 IC50
Summary of the method: as §3

[8] = target: NDM-1 (Klebsiella pneumoniae, UniProt C7C422); assay: biochemical; format: biochemical; details: fluorescence assay, CCF2-FA substrate, 1 pM enzyme, 2 hours at 25° C., read-out: NDM-1 IC50
Summary of the method: as §3

[9] = system: Pseudomonas aeruginosa MB9798 vs MB9799
Summary of the method: as §1

[10] = fluorescence assay, read-out: VIM-1 IC50
[11] = fold difference between efflux+ (MB9798) and efflux− (MB9799) strains, imipenem at 2 μg/mL
[12] = ratio MITC95 PA_9798/MITC95 PA_9799

Sequence of IMP-1 (P52699 whole entry, looked up, species assumed): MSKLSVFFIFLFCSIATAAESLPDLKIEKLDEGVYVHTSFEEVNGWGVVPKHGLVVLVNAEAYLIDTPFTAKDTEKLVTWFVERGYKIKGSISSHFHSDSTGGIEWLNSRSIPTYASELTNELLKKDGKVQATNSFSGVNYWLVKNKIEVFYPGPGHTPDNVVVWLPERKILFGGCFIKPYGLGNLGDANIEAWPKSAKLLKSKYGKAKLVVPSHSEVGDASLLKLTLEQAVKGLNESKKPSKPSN
Sequence of NDM-1 (C7C422 whole entry, looked up, species assumed): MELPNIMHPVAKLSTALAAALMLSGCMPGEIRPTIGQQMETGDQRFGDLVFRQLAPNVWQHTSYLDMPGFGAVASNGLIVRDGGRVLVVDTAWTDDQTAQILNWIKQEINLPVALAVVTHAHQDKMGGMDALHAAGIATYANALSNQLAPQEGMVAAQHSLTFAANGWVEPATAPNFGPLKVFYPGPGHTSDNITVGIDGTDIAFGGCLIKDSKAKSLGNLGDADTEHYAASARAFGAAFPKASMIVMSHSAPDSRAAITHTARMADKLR

| Structure (SMILES) | Concentration of metallo-β-lactamase inhibitor which restores susceptibility of efflux + (MB9798) strain to imipenem [1] | Concentration of metallo-β-lactamase inhibitor which restores susceptibility of efflux − (MB9799) strain to imipenem [2] | Escherichia coli MITC95 [3] [µM] | Klebsiella pneumoniae MITC95 [4] [µM] | Serratia marcescens MITC95 [5] [µM] | IC50 [6, 10] [nM] | IC50 [7] [nM] | IC50 [8] [nM] | Efflux ratio [9, 11] | IC50 ([6]; read-out: VIM-1 IC50, fluorescence assay) [nM] | P. aeruginosa expressing IMP-1, efflux + (MB9798) MITC95 [1] [µM] | P. aeruginosa expressing IMP-1, efflux − (MB9799) MITC95 [2] [µM] | Escherichia coli expressing NDM-1 (CLB30016) MITC95 [3] [µM] | Klebsiella pneumoniae expressing VIM-1 (IHMA599644) MITC95 [4] [µM] | Serratia marcescens expressing IMP-1 (CL5741) MITC95 [5] [µM] | IC50 ([6]; VIM-1 IC50, fluorescence assay) [nM] | Efflux ratio [9, 12] | IC50 ([7]; 2,2,2-trifluoroacetate) [nM] | IC50 ([8]; 2,2,2-trifluoroacetate) [nM] |
| --- | --- | --- | --- | --- | --- | --- | --- | --- | --- | --- | --- | --- | --- | --- | --- | --- | --- | --- | --- |
| NC[C@H](CO)NS(=O)(=O)c1ccc(-c2cccc3nc(N)[nH]c23)c(-c2nn[nH]n2)c1S(N)(=O)=O [Example 427] | 0.7813 | 0.7813 | 0.3906 | 1.563 | 0.7813 | 0.547 | 2.61 | 0.221 | 1.00 | – | – | – | – | – | – | – | – | – | – |
| Nc1ccc(-c2ccc(S(=O)(=O)NC3CC(N)C3)c(S(N)(=O)=O)c2-c2nn[nH]n2)cn1 [Example 483, N1-((1R,3R)-3-aminocyclobutyl)-4-(6-aminopyridin-3-yl)-3-(2H-tetrazol-5-yl)benzene-1,2-disulfonamide] | 0.7813 | 0.7813 | 1.758 | 1.563 | 0.7813 | – | 0.33 | 0.0927 | 1.00 | 0.115 | – | – | – | – | – | – | – | – | – |
| Nc1nc2c(-c3ccc(S(=O)(=O)N[C@@H]4CNC[C@H]4O)c(S(N)(=O)=O)c3-c3nnn[nH]3)cccc2[nH]1 [Example 171, 4-(2-amino-1H-benzo[d]imidazol-4-yl)-N^1-((3R,4R)-4-hydroxypyrrolidin-3-yl)-3-(1H-tetrazol-5-yl)benzene-1,2-disulfonamide] | – | – | – | – | – | – | 1.39 | 0.125 | – | – | 0.7813 | 1.563 | 0.7813 | 3.125 | 1.563 | 0.506 | 0.50 | – | – |
| CN1CCC(CNS(=O)(=O)c2ccc(-c3cccc4sc(N)nc34)c(-c3nnn[nH]3)c2S(N)(=O)=O)C1.O=C(O)C(F)(F)F (stereo not drawn) [Example 102, 3-((4-(2-aminobenzo[d]thiazol-4-yl)-2-sulfamoyl-3-(1H-tetrazol-5-yl)phenylsulfonamido)methyl)-1-methylpyrrolidin-1-ium 2,2,2-trifluoroacetate] | – | – | – | – | – | – | 0.263 | 0.0324 | – | – | 0.7813 | 1.563 | 3.125 | 3.125 | 1.563 | 0.194 | 0.50 | – | – |
| Nc1nc2c(-c3ccc(S(=O)(=O)N[C@@H]4CCNC4)c(S(N)(=O)=O)c3-c3nn[nH]n3)cc(I)cc2[nH]1 [Example 234, (R)-4-(2-amino-6-iodo-1H-benzo[d]imidazol-4-yl)-N^1-(pyrrolidin-3-yl)-3-(2H-tetrazol-5-yl)benzene-1,2-disulfonamide] | – | – | – | – | – | 0.0829 | 0.14 | 0.0157 | – | – | 0.7813 | 0.7813 | 0.7813 | 0.7813 | 0.7813 | – | 1.00 | – | – |
| NC[C@@H]1CCN(S(=O)(=O)c2ccc(-c3cccc4sc(N)nc34)c(-c3nnn[nH]3)c2S(N)(=O)=O)C1.O=C(O)C(F)(F)F [Example 94, (S)-(1-((4-(2-aminobenzo[d]thiazol-4-yl)-2-sulfamoyl-3-(1H-tetrazol-5-yl)phenyl)sulfonyl)pyrrolidin-3-yl)methanaminium 2,2,2-trifluoroacetate] | – | – | – | – | – | – | – | – | – | – | 1.563 | 1.563 | 3.646 | 3.125 | 2.083 | 0.973 | 1.00 | 0.73 | 0.574 |
| C[C@H](N)CC(=O)NS(=O)(=O)c1ccc(-c2cccc3[nH]c(N)nc23)c(-c2nn[nH]n2)c1S(N)(=O)=O [Example 208, (S)-3-amino-N-((4-(2-amino-1H-benzo[d]imidazol-4-yl)-2-sulfamoyl-3-(2H-tetrazol-5-yl)phenyl)sulfonyl)butanamide] | – | – | – | – | – | 1.23 | 3.12 | 0.449 | – | – | 3.125 | 3.125 | 1.563 | 6.25 | 3.125 | – | 1.00 | – | – |
| NC[C@H](CO)NS(=O)(=O)c1ccc(-c2cccnc2N)c(-c2nn[nH]n2)c1S(N)(=O)=O [Example 215, (R)-N1-(1-amino-3-hydroxypropan-2-yl)-4-(2-aminopyridin-3-yl)-3-(2H-tetrazol-5-yl)benzene-1,2-disulfonamide] | – | – | – | – | – | 0.222 | 2.12 | 0.175 | – | – | 1.563 | 1.563 | 0.1953 | 3.125 | 0.3906 | – | 1.00 | – | – |
| CN(C)CCCN(C)S(=O)(=O)c1ccc(-c2cccc3sc(N)nc23)c(-c2nnn[nH]2)c1S(N)(=O)=O [Example 52, 4-(2-amino-1,3-benzothiazol-4-yl)-N1-[3-(dimethylamino)propyl]-N~1~-methyl-3-(1H-tetrazol-5-yl)benzene-1,2-disulfonamide] | – | – | – | – | – | 25.3 | 5.94 | 15.3 | – | – | 6.25 | 3.125 | 12.5 | 50 | 3.125 | – | 2.00 | – | – |
| Nc1nc2c(-c3ccc(S(=O)(=O)NC[C@]4(N)CCNC4)c(S(N)(=O)=O)c3-c3nn[nH]n3)cccc2s1 [Example 366, (S)-4-(2-aminobenzo[d]thiazol-4-yl)-N^1-((3-aminopyrrolidin-3-yl)methyl)-3-(2H-tetrazol-5-yl) benzene-1,2-disulfonamide] | – | – | 0.7813 | 3.125 | 1.563 | – | 0.0753 | 0.0225 | – | – | 0.7813 | 0.7813 | – | – | – | 0.105 | 1.00 | – | – |
| NCC(CN)NS(=O)(=O)c1ccc(-c2ccc3nccn3c2)c(-c2nn[nH]n2)c1S(N)(=O)=O [Example 406] | 1.563 | 1.563 | 0.3906 | 3.125 | 0.7813 | 0.172 | 0.592 | 0.164 | 1.00 | – | – | – | – | – | – | – | – | – | – |
